{
  "source": "patent US20140127185A1",
  "about": "“METHODS AND COMPOSITIONS USING NEUROPROTECTIVE STEROIDS AND THROMBOLYTIC AGENTS” (priority 2012, published 2014)",
  "key": {"claudin-5": {"system": "claudin-5", "experiment": "Claudin-5 in H/R-treated bEND3 cells (Western blot)", "type": "cell-based, mouse", "conditions": "tPA with H/R", "description": "(§1) An immortalized mouse brain endothelial cell line (bEND 3) is purchased from American Type Culture Collection (ATCC, VA, USA) and cultured in Dulbecco's modified Eagle Medium (DMEM, ATCC) supplemented with 10% fetal bovine serum (ATCC). bEND 3 cells are seeded onto the luminal side of a filter (0.4 μm pore size; Corning, Lowell, MCA) coated with fibronectin (5 μg/ml) in 12-well plates for a transendothelial electrical resistance (TEER) test; and in 100-mm dishes for Western blot studies. Cell cultures are incubated at 37° C. in a 5%/95% mixture of CO2 and atmospheric air, and the medium is replaced every 3 days.\nPeri-infarct cortical tissue is processed for protein analysis. Tissues are homogenized in T-per (Pierce, Rockford, Ill.) containing protease inhibitor cocktail (P8340, Sigma). Homogenates are centrifuged for 15 minutes at 13,000 g. […] Intensity of the bands is measured by an Image Gauge version. […]\n(§2) To mimic ischemia-like conditions in vitro, immortalized mouse brain endothelial (bEND3) cells were exposed to 6 hours of hypoxia and 3 hours of reoxygeneation with or without the administration of tPA at a dose of 20 μ/ml. […] BBB integrity was evaluated by transendothelial membrane electrical resistance (TEER) measurement, MMP-9 activity, and the alteration of tight junction proteins following in vitro H/R injury."}, "MMP-9 [1]": {"system": "MMP-9", "experiment": "MMP-9 levels in bEND3 cells exposed to H/R and tPA", "type": "cell-based, mouse", "conditions": "bEND3 cells exposed to H/R and tPA for 9 hours; progesterone pretreatment", "description": "The bEnd 3 cells grown to confluence on coverslips are subjected to the indicated treatments. For […], cells are washed three times with PBS, fixed in 3% paraformaldehyde for 10 minutes, permeabilized with 02% Triton X-100 in PBS for 10 minutes and blocked with 10% BSA and 0.1% Triton X-100 in PBS for 1 hour. After washing with PBS, the monolyers are incubated with a primary antibody for occludin (Invitrogen, 1:200) and MMP-9 (Abeam, Mass., USA, 1:200) overnight at 4° C. The cell monolayers are then washed 3 times with PBS and incubated with Alexa Fluor 488 anti-rabbit and orange anti-mouse (Molecular Probes, Eugene, Oreg.) for 1 hour. After washing in PBS, the coverslips are mounted on glass slides with Vectasheild with dapi (Vecta Laboratories).\nas §2\nTo directly determine MMP-9 activity after ischemia, proteolytic activity of MMP-9 was measured using a fluorescence resonance energy transfer peptide. […]"}, "MMP-9 [2]": {"system": "MMP-9", "experiment": "Active MMP-9 fluorometric FRET peptide assay of ischemic cortex lysates", "type": "in vivo, rat", "conditions": "24 hours after ischemia; tPA at 4.5 hours; vs control and tMCAO groups", "description": "A Fluorimetric SensoLyte™ 490 kit (AnaSpec Corp., San Jose, Calif. USA) is used to quantify the specific enzymetic activity of active MMP-9 by using a fluorescence resonance energy transfer peptide containing a fluorescent donor and quenching acceptor (Lin, Hou et al. 2008). The samples (100 μg) are placed in a 96-well plate containing 50 μl of assay buffer. The proteolytic resonance energy transfer peptide is expressed as a fold change in fluorescence intensity at excitation of 355 nm/emission of 460 nm.\nFor in vivo evaluation, Male SD rats were subjected to MCAO, reperfused at 4.5 hours and then treated with tPA only (5 mg/kg body weight via femoral vein) at 4.5 hours post-stroke or with progesterone (intraperitoneally) at 2 hours post-stroke plus tPA at 4.5 hours post-stroke. Rats were killed at 24 hours post-ischemia and their brains perfused for evaluation of cerebral hemorrhage, brain swelling, BBB permeability, MMP-9 activity, and the alteration of tight junction proteins.\nTo directly determine MMP-9 activity after ischemia, proteolytic activity of MMP-9 was measured using a fluorescence resonance energy transfer peptide. […] Consistent with the Western blot results, exposure of cells to H/R and tPA for 9 hours reduced the detected levels of occludin, as compared to control bEND 3 cells, while MMP-9 levels were increased in cells exposed to H/R and tPA for 9 hours."}, "bEND3 cells": {"system": "bEND3 cells", "experiment": "Transendothelial electrical resistance (TEER) after hypoxia/reperfusion (H/R)", "type": "cell-based, mouse", "conditions": "tPA 20 μ/ml; 6 hours hypoxia, 3 hours reoxygenation", "description": "as §1\nThe electrical resistance across the membrane are measured using an Millicell ERS Voltohmmeter (Millipore, Billerica, Mass.). The extracellular matrix-treated Transwell inserts are placed in 12-well plates containing culture medium and then used to measure the background resistance. The resistance measurements of these blank filters are then subtracted from those of filters with cells. Values are shown as Q. based on culture inserts.\nTo mimic ischemia-like conditions in vitro, immortalized mouse brain endothelial (bEND3) cells were exposed to 6 hours of hypoxia and 3 hours of reoxygeneation with or without the administration of tPA at a dose of 20 μ/ml. Reoxygenation was initiated by adding glucose (4.5 g/L)-containing phenol red-free DMEM for 3 hours at 37° C. in 95% air and 5% CO2. The cells were treated with various concentrations progesterone for 24 hours before hypoxia/reperfusion (H/R). BBB integrity was evaluated by transendothelial membrane electrical resistance (TEER) measurement, MMP-9 activity, and the alteration of tight junction proteins following in vitro H/R injury."}, "occludin": {"system": "occludin", "experiment": "Occludin in H/R-treated bEND3 cells (Western blot, immunofluorescence)", "type": "cell-based, mouse", "description": "as §1\nPeri-infarct cortical tissue is processed for protein analysis. Tissues are homogenized in T-per (Pierce, Rockford, Ill.) containing protease inhibitor cocktail (P8340, Sigma). Homogenates are centrifuged for 15 minutes at 13,000 g. 40 μg of total protein is separated on 8-12% gel and transferred onto polyvinylidene difluoride (Millipore, Mass., USA; PVDF) membranes at 300 mA for 2 hours. To measure the level of immunoglobulin, the membranes were incubated overnight at 4° C. with anti Rat IgG conjugated to biotin. bEND 3 cells are subjected to hypoxia/reperfusion for 9 hours and then lysed on ice in 100 μl of RIPA buffer. Cell lysated are boiled and then electrophoresed in 12% SDS-PAGE acrylamide gels, transferred onto PVDF membranes, and incubated for 1 hour in TBS-T (tris-buffered saline and 0.1% Tween 20) containing 5% bovine serum albumin (BSA). Membranes are then incubated overnight at 4° C. with primary antibodies against occludin (Invitrogen, Calif., USA; 1:1000), claudin-5 (Invitrogen; 1:1000), and ZO-1 (Invitrogen; 1:1000), washed in TBS-T, and incubated for 1 hour at room temperature with corresponding peroxidase-conjugated secondary antibodies (1:5000; KPL, Gaithersburg, Md.). All blots are stripped and re-incubated with β-actin antibodies (1:5000, Sigma) as a loading control. The peroxidase reaction is developed with an ECL-plus detection kit (Amersham BioScience, Piscataway, N.J.). Intensity of the bands is measured by an Image Gauge version. 4.0 program (FUJI Photo Film Co., Ltd).\nThe bEnd 3 cells grown to confluence on coverslips are subjected to the indicated treatments. […]\nas §2"}, "[3]": {"system": "blood-brain barrier (BBB)", "experiment": "BBB disruption: serum IgG in ischemic cortex by Western blot", "type": "in vivo, rat", "conditions": "24 hours after ischemic injury and tPA treatment"}},
  "data": [
    {"substance": "tPA: serum protease acting specifically on serum plasminogen; also known as alteplase, available commercially as Activase", "values": [
      {"measurement": "Expression of 23-kDa claudin-5 (Western blot)", "setting": "claudin-5", "value": "markedly decreased"},
      {"measurement": "MMP-9 levels", "setting": "MMP-9 [1]", "value": "increased"},
      {"measurement": "MMP-9 activity (FRET peptide)", "setting": "MMP-9 [2]", "value": "significantly higher"},
      {"measurement": "TEER under H/R conditions", "setting": "bEND3 cells", "value": "significantly decreased"},
      {"measurement": "Detected levels of occludin (immunofluorescence)", "setting": "occludin; bEND3 cells exposed to H/R and tPA for 9 hours, progesterone pretreatment", "value": "reduced"},
      {"measurement": "Expression of occludin (Western blot)", "setting": "occludin; bEND3 cells, tPA with H/R", "value": "markedly decreased"},
      {"measurement": "Increase of IgG levels in ischemic cortex", "setting": "[3]", "value": "up to 2 ×"}
    ]}
  ]
}
